Key:
[1] = molecular target: T1, Proto-oncogene tyrosine-protein kinase Src (Homo sapiens, UniProt P12931)
[2] = test system: SW-620; experiment: Inhibition of SW620 cell proliferation; details: Homo sapiens
[3] = molecular target: Epidermal growth factor receptor (Homo sapiens, UniProt P00533); experiment: Inhibition of epidermal growth factor receptor (EGFR)
[4] = molecular target: T1, Proto-oncogene tyrosine-protein kinase Src; experiment: Inhibition of Src protein tyrosine kinase at 0.01 uM
[5] = molecular target: T1, Proto-oncogene tyrosine-protein kinase Src; experiment: Inhibition of Src protein tyrosine kinase at 0.1 uM
[6] = test system: LoVo; experiment: Inhibition of LOVO cell proliferation; details: Homo sapiens
[7] = molecular target: Dual specificity mitogen-activated protein kinase kinase 1 (Homo sapiens, UniProt Q02750); experiment: Inhibition of Dual specificity mitogen-activated protein kinase kinase (MEK-1)
Chain of Dual specificity mitogen-activated protein kinase kinase 1 (Q02750 whole entry): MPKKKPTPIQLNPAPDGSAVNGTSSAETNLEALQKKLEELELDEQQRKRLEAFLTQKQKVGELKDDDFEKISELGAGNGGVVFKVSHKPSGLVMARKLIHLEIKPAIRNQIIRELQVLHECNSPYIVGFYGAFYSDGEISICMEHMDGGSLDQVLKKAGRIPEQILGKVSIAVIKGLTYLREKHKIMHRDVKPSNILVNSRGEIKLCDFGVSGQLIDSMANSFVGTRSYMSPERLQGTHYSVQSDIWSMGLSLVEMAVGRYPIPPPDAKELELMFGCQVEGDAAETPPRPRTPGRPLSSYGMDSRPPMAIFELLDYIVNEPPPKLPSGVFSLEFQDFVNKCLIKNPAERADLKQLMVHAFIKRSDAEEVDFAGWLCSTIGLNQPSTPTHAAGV

T1 sequence (P12931 2-536 limits assumed): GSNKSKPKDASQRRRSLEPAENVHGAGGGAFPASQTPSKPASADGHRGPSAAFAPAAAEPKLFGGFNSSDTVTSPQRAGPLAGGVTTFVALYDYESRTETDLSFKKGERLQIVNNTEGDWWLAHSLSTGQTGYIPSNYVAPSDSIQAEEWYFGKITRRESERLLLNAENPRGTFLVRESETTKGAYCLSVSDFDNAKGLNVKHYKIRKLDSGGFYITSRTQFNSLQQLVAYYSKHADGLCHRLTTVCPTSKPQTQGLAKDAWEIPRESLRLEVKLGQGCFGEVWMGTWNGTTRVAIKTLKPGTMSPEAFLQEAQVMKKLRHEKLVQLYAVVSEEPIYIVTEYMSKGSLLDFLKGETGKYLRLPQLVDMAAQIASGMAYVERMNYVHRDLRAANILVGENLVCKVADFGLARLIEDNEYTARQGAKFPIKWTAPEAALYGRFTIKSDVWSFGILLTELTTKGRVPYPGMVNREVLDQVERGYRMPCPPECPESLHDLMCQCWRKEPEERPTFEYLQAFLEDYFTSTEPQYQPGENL
Chain of Epidermal growth factor receptor (P00533 whole entry): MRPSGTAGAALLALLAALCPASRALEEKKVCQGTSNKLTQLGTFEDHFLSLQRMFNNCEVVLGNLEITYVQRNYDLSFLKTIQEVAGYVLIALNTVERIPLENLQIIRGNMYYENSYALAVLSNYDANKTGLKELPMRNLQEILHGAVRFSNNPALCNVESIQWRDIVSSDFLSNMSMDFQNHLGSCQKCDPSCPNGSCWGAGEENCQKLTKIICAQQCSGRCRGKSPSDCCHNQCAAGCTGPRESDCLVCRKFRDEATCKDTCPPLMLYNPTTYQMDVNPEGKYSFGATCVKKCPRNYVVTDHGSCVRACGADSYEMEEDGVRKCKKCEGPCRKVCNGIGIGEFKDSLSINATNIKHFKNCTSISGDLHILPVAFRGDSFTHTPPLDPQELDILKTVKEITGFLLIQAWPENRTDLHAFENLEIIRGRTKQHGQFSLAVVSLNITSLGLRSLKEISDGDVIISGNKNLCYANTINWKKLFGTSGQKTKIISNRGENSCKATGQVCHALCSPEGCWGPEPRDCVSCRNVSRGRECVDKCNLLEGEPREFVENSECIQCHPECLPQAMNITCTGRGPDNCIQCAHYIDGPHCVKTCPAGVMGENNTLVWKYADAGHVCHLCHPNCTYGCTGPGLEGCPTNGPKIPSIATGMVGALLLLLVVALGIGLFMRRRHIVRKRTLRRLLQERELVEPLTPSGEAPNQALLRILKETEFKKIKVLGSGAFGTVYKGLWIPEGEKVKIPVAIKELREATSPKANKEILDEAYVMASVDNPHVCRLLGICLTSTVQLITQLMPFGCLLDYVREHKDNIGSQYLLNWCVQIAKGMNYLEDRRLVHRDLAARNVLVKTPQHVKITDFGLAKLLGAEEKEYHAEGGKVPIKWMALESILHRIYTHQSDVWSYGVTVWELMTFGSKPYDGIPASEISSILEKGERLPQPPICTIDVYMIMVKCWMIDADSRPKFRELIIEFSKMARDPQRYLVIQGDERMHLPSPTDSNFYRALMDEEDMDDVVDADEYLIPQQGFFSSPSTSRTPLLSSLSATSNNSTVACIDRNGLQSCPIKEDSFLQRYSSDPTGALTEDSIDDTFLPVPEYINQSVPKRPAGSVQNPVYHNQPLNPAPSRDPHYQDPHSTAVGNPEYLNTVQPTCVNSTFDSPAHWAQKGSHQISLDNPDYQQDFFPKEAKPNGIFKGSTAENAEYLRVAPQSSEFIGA

**Q.** `COc1cc2ncc(C#N)c(Nc3ccc(Cl)cc3Cl)c2cc1OC` was tested. Which IC50 [1] did it give?
**A.** Its IC50 is 38 nM.

**Q.** How did the IC50 [2] turn out when `COc1cc2cc3ncc(C#N)c(Nc4ccc(F)c(Cl)c4)c3cc2cc1OC` was run?
**A.** The IC50 was 1990 nM.

**Q.** And the IC50 [3]?
**A.** Its IC50 is 18000 nM.

**Q.** Which inhibition [4] does the source give for `N#Cc1cnc2cc3cc(O)c(O)cc3cc2c1Nc1ccc(Cl)cc1Cl` here?
**A.** The inhibition was 10%.

**Q.** `COc1ccc2cc3ncc(C#N)c(Nc4ccc(Cl)cc4Cl)c3cc2c1` was tested. Which inhibition [5] did it give?
**A.** The inhibition was 30%.

**Q.** Which inhibition [5] does the source give for `COc1ccc2cc3c(Nc4ccc(Cl)cc4Cl)c(C#N)cnc3cc2c1` here?
**A.** The inhibition was 30%.

**Q.** `COc1cc2cc3ncc(C#N)c(Nc4ccc(Oc5ccccc5)cc4)c3cc2cc1OC` was tested. Which IC50 [6] did it give?
**A.** The IC50 was 670 nM.

**Q.** And the IC50 [7]?
**A.** The IC50 was 10 nM.
